The source of these data is patent US10988477B2 (Merck Patent GmbH, priority 2018, dated 2021).

As usually defined, the IC50 is the concentration needed to halve the response being measured. A low value points to greater potency in that assay.

Some results are limits rather than exact numbers.

Chain of GCN2 kinase (Q9P2K8 whole entry): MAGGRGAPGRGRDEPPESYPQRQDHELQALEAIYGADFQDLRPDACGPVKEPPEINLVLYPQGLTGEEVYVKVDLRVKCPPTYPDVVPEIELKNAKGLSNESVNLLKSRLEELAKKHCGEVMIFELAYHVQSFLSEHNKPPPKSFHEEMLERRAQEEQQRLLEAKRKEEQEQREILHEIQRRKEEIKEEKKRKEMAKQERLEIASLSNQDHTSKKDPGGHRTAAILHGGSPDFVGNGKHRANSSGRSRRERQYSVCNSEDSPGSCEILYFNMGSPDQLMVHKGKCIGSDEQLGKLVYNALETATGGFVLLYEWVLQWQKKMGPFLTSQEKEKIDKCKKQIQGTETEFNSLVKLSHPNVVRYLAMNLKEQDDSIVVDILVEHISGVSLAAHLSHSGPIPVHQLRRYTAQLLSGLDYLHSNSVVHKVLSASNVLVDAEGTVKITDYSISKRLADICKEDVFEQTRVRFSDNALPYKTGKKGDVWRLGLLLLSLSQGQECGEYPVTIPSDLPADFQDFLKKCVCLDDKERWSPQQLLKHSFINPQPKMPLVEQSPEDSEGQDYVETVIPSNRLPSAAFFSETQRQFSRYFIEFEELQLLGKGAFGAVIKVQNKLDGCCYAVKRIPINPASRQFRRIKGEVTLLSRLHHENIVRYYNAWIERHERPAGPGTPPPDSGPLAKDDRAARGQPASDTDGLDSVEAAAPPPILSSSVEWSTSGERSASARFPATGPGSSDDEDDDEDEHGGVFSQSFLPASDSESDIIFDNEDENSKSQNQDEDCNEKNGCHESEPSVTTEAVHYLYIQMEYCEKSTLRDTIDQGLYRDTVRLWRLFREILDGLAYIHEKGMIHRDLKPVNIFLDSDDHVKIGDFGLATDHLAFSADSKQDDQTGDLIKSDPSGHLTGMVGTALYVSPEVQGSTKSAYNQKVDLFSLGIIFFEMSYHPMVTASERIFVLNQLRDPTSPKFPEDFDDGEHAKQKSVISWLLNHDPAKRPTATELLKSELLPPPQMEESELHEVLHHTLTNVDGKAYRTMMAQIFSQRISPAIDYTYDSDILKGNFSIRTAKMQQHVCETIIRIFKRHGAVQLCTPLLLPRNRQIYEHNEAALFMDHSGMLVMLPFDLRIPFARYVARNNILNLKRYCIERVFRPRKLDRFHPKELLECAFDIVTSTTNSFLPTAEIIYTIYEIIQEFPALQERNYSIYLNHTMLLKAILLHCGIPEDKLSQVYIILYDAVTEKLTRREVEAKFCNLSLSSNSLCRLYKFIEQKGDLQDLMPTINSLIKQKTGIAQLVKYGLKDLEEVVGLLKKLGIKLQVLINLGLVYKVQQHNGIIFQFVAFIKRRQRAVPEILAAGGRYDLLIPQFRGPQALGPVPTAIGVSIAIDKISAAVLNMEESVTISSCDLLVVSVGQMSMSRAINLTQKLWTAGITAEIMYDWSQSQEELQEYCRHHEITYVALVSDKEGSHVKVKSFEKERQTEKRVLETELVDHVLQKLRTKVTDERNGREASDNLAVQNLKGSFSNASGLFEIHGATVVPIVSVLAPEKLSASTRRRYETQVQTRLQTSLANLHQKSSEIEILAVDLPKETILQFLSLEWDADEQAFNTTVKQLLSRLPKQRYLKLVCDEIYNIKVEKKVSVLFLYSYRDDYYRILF

One assay addresses GCN2 kinase (Homo sapiens, UniProt Q9P2K8). Nature of the assay: GCN2 enzyme inhibition assay (Transcreener ADP2 fluorescence polarization). Format: biochemical. The note with it: Enzyme activity for compounds of Formula IV; Ki(app), 280 μM ATP, 25° C. The essentials: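 Human GCN2 (4 nM) preincubated 10 min with compound (0–8 μM) and 200 μM (RS)7 peptide in Tris-HCl pH 7.5, NaCl, MgCl2, DTT. Reaction started with 280 μM ATP, run 1 h at 25 °C. ADP detected by Transcreener fluorescence polarization. IC50 and Ki(app) fitted by tight-binding algorithm.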
In general terms: In fluorescence polarisation assays a small probe gives low polarisation when free and higher when bound to something large.
Take `CC1C(c2cn[nH]c2)OCCN1c1ccnc(-c2cnc3cnc(C#N)cn23)n1` (single isomer, unassigned) [IV-290, 3-(4-(3-Methyl-2-(1H-pyrazol-4-yl)morpholino)pyrimidin-2-yl)imidazo[1,2-a]pyrazine-6-carbonitrile]: the Ki was less than 10 nM.
In turn, `CN1CCN(c2ccnc(-c3cnc4cnc(C(N)=O)cn34)n2)CC1` [IV-239, 3-(4-(4-Methylpiperazin-1-yl)pyrimidin-2-yl)imidazo[1,2-a]pyrazine-6-carboxamide] displayed a Ki of 100 to 1000 nM.
Molecule `NS(=O)(=O)c1ccc(C(=O)N[C@@H]2CCCN(c3ccnc(-c4cnc5cnc(C(F)(F)F)cn45)n3)C2)o1` [IV-710] registered a Ki of 100 to 1000 nM.
In turn, `FC(F)(F)c1cn2c(-c3nccc(N4CCCC(c5nnco5)C4)n3)cnc2cn1` (stereo not drawn) [IV-656, 2-(1-(2-(6-(Trifluoromethyl)imidazo[1,2-a]pyrazin-3-yl)pyrimidin-4-yl)piperidin-3-yl)-1,3,4-oxadiazole] registered a Ki of 100 to 1000 nM.
Molecule `CS(=O)(=O)N=S1(=O)CCN(c2ccnc(-c3cnc4cnc(C(F)(F)F)cn34)n2)CC1` [IV-727] had a Ki greater than 1000 nM.
Molecule `O=C1CCCC2CN(c3ccnc(-c4cnc5cnc(Cl)cn45)n3)CCN12` (stereo not drawn) [IV-286, 2-(2-(6-Chloroimidazo[1,2-a]pyrazin-3-yl)pyrimidin-4-yl)octahydro-6H-pyrido[1,2-c]pyrazin-6-one] registered a Ki of 10 to 100 nM.
Consider `OCC1CCCCN(c2ccnc(-c3cnc4cnc(C(F)(F)F)cn34)n2)C1` (stereo not drawn) [IV-445, (1-(2-(6-(Trifluoromethyl)imidazo[1,2-a]pyrazin-3-yl)pyrimidin-4-yl)azepan-3-yl)methanol], for which the Ki lay within 100 to 1000 nM.
In turn, `FC(F)(F)c1cn2c(-c3nccc(N4CCCC(n5ccc(C(F)(F)F)n5)C4)n3)cnc2cn1` (stereo not drawn) [IV-664, 6-(Trifluoromethyl)-3-(4-(3-(3-(trifluoromethyl)-1H-pyrazol-1-yl)piperidin-1-yl)pyrimidin-2-yl)imidazo[1,2-a]pyrazine] came in with a Ki of 100 to 1000 nM.
`NC(=O)c1cn2c(-c3nccc(N4CC(=O)N5CCCCC5C4)n3)cnc2cn1` (stereo not drawn) [IV-263, 3-(4-(4-Oxooctahydro-2H-pyrido[1,2-a]pyrazin-2-yl)pyrimidin-2-yl)imidazo[1,2-a]pyrazine-6-carboxamide] registered a Ki of 100 to 1000 nM.
`CN1CC2(CCN(c3ccnc(-c4cnc5cnc(C(F)(F)F)cn45)n3)C2)OC1=O` (stereo not drawn) [IV-579, 3-Methyl-7-(2-(6-(trifluoromethyl)imidazo[1,2-a]pyrazin-3-yl)pyrimidin-4-yl)-1-oxa-3,7-diazaspiro[4.4]nonan-2-one] yielded a Ki of 100 to 1000 nM.
`O=C(NCCO)C1CCCN(c2ccnc(-c3cnc4cnc(C(F)(F)F)cn34)n2)C1` (stereo not drawn) [IV-479, N-(2-Hydroxyethyl)-1-(2-(6-(trifluoromethyl)imidazo[1,2-a]pyrazin-3-yl)pyrimidin-4-yl)piperidine-3-carboxamide] registered a Ki of 100 to 1000 nM.
For the molecule `N#CC1CCN(c2ccnc(-c3cnc4cnc(C(N)=O)cn34)n2)CC1` [IV-254, 3-(4-(4-Cyanopiperidin-1-yl)pyrimidin-2-yl)imidazo[1,2-a]pyrazine-6-carboxamide], the Ki was 10 to 100 nM.
As for `N#CCC1CCCN(c2ccnc(-c3cnc4cnc(C(F)(F)F)cn34)n2)C1` (stereo not drawn) [IV-514, 2-(1-(2-(6-(Trifluoromethyl)imidazo[1,2-a]pyrazin-3-yl)pyrimidin-4-yl)piperidin-3-yl)acetonitrile], the Ki is 100 to 1000 nM.
On the same count and under the same terms, the result for `FC(F)(F)c1cn2c(-c3nccc(N4CCO[C@H](c5ccccn5)C4)n3)cnc2cn1` [IV-713] reads 100 to 1000 nM.
Still for that read-out and setting: the result for `CS(=N)(=O)CC1CCCN(c2ccnc(-c3cnc4cnc(C(F)F)cn34)n2)C1` (single isomer, unassigned) [IV-339, ((1-(2-(6-(Difluoromethyl)imidazo[1,2-a]pyrazin-3-yl)pyrimidin-4-yl)piperidin-3-yl)methyl)(imino)(methyl)-λ^6-sulfanone] reads 100 to 1000 nM.
In turn, `CNC(=O)c1cn2c(-c3cccc(N4CCN(C(C)=O)CC4)n3)cnc2cn1` [IV-260, 3-(6-(4-Acetylpiperazin-1-yl)pyridin-2-yl)-N-methylimidazo[1,2-a]pyrazine-6-carboxamide] registered a Ki of 10 to 100 nM.
In turn, `C[C@H]1[C@@H](c2cn[nH]c2)OCCN1c1ccnc(-c2cnc3cnc(Cl)cn23)n1` (racemic) [IV-235, Cis-4-(2-(6-Chloroimidazo[1,2-a]pyrazin-3-yl)pyrimidin-4-yl)-3-methyl-2-(1H-pyrazol-4-yl)morpholine] showed a Ki of less than 10 nM.
In turn, `O=C1NC(=O)C2(CCN(c3ccnc(-c4cnc5cnc(C(F)(F)F)cn45)n3)C2)N1` (stereo not drawn) [IV-560, 7-(2-(6-(Trifluoromethyl)imidazo[1,2-a]pyrazin-3-yl)pyrimidin-4-yl)-1,3,7-triazaspiro[4.4]nonane-2,4-dione] had a Ki of 100 to 1000 nM.
Still for that read-out and setting: the result for `Cc1[nH]ncc1C1NC(C)CN(c2ccnc(-c3cnc4cnc(Cl)cn34)n2)C1C` (single isomer, unassigned) [IV-282, 6-Chloro-3-(4-(2,5-dimethyl-3-(5-methyl-1H-pyrazol-4-yl)piperazin-1-yl)pyrimidin-2-yl)imidazo[1,2-a]pyrazine] reads less than 10 nM; that for `O=C(Nc1cn[nH]c1)[C@@H]1CCCN(c2ccnc(-c3cnc4cnc(C(F)(F)F)cn34)n2)C1` [IV-725], greater than 1000 nM; that for `CC(C)(O)CN1CCN(c2ccnc(-c3cnc4cnc(C(F)(F)F)cn34)n2)CC1` [IV-619, 2-Methyl-1-(4-(2-(6-(trifluoromethyl)imidazo[1,2-a]pyrazin-3-yl)pyrimidin-4-yl)piperazin-1-yl)propan-2-ol], 100 to 1000 nM.

The same assay, now with this note: compounds of Formula II; 280 μM ATP, 4 nM GCN2 kinase.
Molecule `O=S1(=O)CCCC1C1CCCN(c2cc(-c3cnc4ccc(C(F)F)nn34)ncn2)C1` (stereo not drawn) [II-563, 2-(1-(6-(6-(Difluoromethyl)imidazo[1,2-b]pyridazin-3-yl)pyrimidin-4-yl)piperidin-3-yl)tetrahydrothiophene 1,1-dioxide] had a Ki of 10 to 1000 nM.
In the case of `FC(F)(F)c1ccc2ncc(-c3cc(-c4cnn(C5CCOCC5)c4)ncn3)n2n1` [II-708, 3-[6-(1-Tetrahydropyran-4-ylpyrazol-4-yl)pyrimidin-4-yl]-6-(trifluoromethyl)imidazo[1,2-b]pyridazine], the Ki was greater than 1000 nM.
Take `N#CC1CCCN(c2cc(-c3cnc4ccc(C(F)F)nn34)ncn2)C1` (stereo not drawn) [II-532, 1-(6-(6-(Difluoromethyl)imidazo[1,2-b]pyridazin-3-yl)pyrimidin-4-yl)piperidine-3-carbonitrile]: the Ki fell in the range of 10 to 1000 nM.
The same measure, in the same setting: the result for `Cc1cc(C(=O)N=S(C)(C)=O)cc(-c2cc(-c3cnc4ccc(C(F)F)nn34)ncn2)c1` [II-611, 3-(6-(6-(difluoromethyl)imidazo[1,2-b]pyridazin-3-yl)pyrimidin-4-yl)-N-(dimethyl(oxo)-λ^6-sulfanylidene)-5-methylbenzamide] reads 10 to 1000 nM.
Regarding `Cc1nn(C)cc1C1CN(c2cc(-c3cnc4ccc(C(F)(F)F)nn34)ncn2)C[C@@H](C)O1` (stereo in doubt) [II-761, (2S,6R)-2-(1,3-dimethyl-1H-pyrazol-4-yl)-6-methyl-4-(6-(6-(trifluoromethyl)imidazo[1,2-b]pyridazin-3-yl)pyrimidin-4-yl)morpholine], the IC50 is greater than 1000 nM.
`CC1C(NS(C)(=O)=O)CCCN1c1cc(-c2cnc3ccc(C(F)F)nn23)ncn1` (stereo not drawn) [II-600, N-(1-(6-(6-(Difluoromethyl)imidazo[1,2-b]pyridazin-3-yl)pyrimidin-4-yl)-2-methylpiperidin-3-yl)methanesulfonamide]: the Ki was greater than 1000 nM.
Still for that read-out and setting: the result for `Cc1nnc([C@@H]2CN(c3cc(-c4cnc5ccc(C(F)(F)F)nn45)ccn3)C[C@H](C)O2)o1` [II-747] reads 10 to 1000 nM; that for `CCS(=O)(CC)=NC1CC(C)CN(c2cc(-c3cnc4ccc(C(F)F)nn34)ncn2)C1` (stereo not drawn) [II-627, ((1-(6-(6-(Difluoromethyl)imidazo[1,2-b]pyridazin-3-yl)pyrimidin-4-yl)-5-methylpiperidin-3-yl)imino)diethyl-λ^6-sulfanone], 10 to 1000 nM; that for `CC1CC(N=S(C)(=O)C2CC2)CN(c2cc(-c3cnc4ccc(C(F)F)nn34)ncn2)C1` (single isomer, unassigned) [II-644, Cyclopropyl((1-(6-(6-(difluoromethyl)imidazo[1,2-b]pyridazin-3-yl)pyrimidin-4-yl)-5-methylpiperidin-3-yl)imino)(methyl)-λ^6-sulfanone], 10 to 1000 nM.
With `CC1CC(CO)C(C)N(c2cc(-c3cnc4ccc(C(F)F)nn34)ncn2)C1` (stereo not drawn) [II-577, (1-(6-(6-(Difluoromethyl)imidazo[1,2-b]pyridazin-3-yl)pyrimidin-4-yl)-2,5-dimethylpiperidin-3-yl)methanol], the Ki is less than 10 nM.
Still for that read-out and setting: the result for `Cc1noc([C@@H]2CN(c3cc(-c4cnc5ccc(C(F)F)nn45)ccn3)C[C@H](C)O2)n1` [II-748] reads 10 to 1000 nM.
On the same count and under the same terms, the result for `CC1CN(c2cc(-c3cnc4ccc(C(F)F)nn34)ncn2)CC(CO)C1(F)F` (stereo not drawn) [II-624, (1-(6-(6-(Difluoromethyl)imidazo[1,2-b]pyridazin-3-yl)pyrimidin-4-yl)-4,4-difluoro-5-methylpiperidin-3-yl)methanol] reads 10 to 1000 nM.
Still for that read-out and setting: the result for `CCS(C)(=O)=NC1CC(C)CN(c2cc(-c3cnc4ccc(C(F)F)nn34)ncn2)C1` (single isomer, unassigned) [II-643, ((1-(6-(6-(Difluoromethyl)imidazo[1,2-b]pyridazin-3-yl)pyrimidin-4-yl)-5-methylpiperidin-3-yl)imino)(ethyl)(methyl)-λ^6-sulfanone] reads less than 10 nM.
As to `CCS(C)(=O)=NC1CC(C)CN(c2cc(-c3cnc4ccc(C(F)F)nn34)ncn2)C1` (single isomer, unassigned) [II-640, ((1-(6-(6-(Difluoromethyl)imidazo[1,2-b]pyridazin-3-yl)pyrimidin-4-yl)-5-methylpiperidin-3-yl)imino)(ethyl)(methyl)-λ^6-sulfanone], the Ki was in the range of 10 to 1000 nM.
For the molecule `CS(=O)(=O)NCC1CC(C#N)CN(c2cc(-c3cnc4ccc(C(F)F)nn34)ncn2)C1` (stereo not drawn), the Ki is 10 to 1000 nM.
